This passage reports relative viability results from the supplement of paper PMC10307832.

What all share (test): relative viability (nuclei count vs DMSO), 5 days (fraction); higher = more cells survive
Compound in experiment [1]: O[C@@H](COc1cccc2ncccc12)CN1CCN([C@@H]2c3ccccc3[C@@H]3[C@H](c4ccccc42)C3(F)F)CC1 [Zosuquidar] + Cc1cc(Nc2cc(N3CCN(C)CC3)nc(Sc3ccc(NC(=O)C4CC4)cc3)n2)n[nH]1 [Tozasertib] (partner 0.1 µM)
The gist of the method:
(§1)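 Medians of duplicate plates are given as relative viability. That measure is the nuclei count in treated wells divided by the count in vehicle wells. Counts were taken on 4× images of lung cancer cell lines in 1536-well plates, 5 days after pin-tool dosing the day after seeding with one drug alone or a fixed anchor-drug dose plus five library-drug doses (not always all listed) in √10 steps.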

Compound in experiment [2]: C1=CC(=CC=C1NC(=S)NNC2=C(C=C(C=C2[N+](=O)[O-])C(F)(F)F)[N+](=O)[O-])F [Kobe2602] + CS(=O)(=O)CCNCc1ccc(-c2ccc3ncnc(Nc4ccc(OCc5cccc(F)c5)c(Cl)c4)c3c2)o1 [Lapatinib] (partner 2 µM)
The method, boiled down: as §1

Compound in experiment [3]: C1=CC(=CC=C1NC(=S)NNC2=C(C=C(C=C2[N+](=O)[O-])C(F)(F)F)[N+](=O)[O-])F [Kobe2602] + Nc1nc2[nH]cc(CCc3ccc(C(=O)N[C@@H](CCC(=O)O)C(=O)O)cc3)c2c(=O)[nH]1 [Pemetrexed] (partner 0.2 µM)
The method, boiled down: as §1

Compound in experiment [4]: COc1cc2nccc(Oc3ccc(NC(=O)C4(C(=O)Nc5ccc(F)cc5)CC4)cc3)c2cc1OC [Cabozantinib] + CC(=O)Nc1cccc(-n2c(=O)n(C3CC3)c(=O)c3c(Nc4ccc(I)cc4F)n(C)c(=O)c(C)c32)c1 [Trametinib] (partner 0.02 µM)
The gist of the method: as §1

Turning to UMC-11, the relative viability in experiment [1] (first compound 0.01 µM) was 0.207; in experiment [1] (first compound 0.03162 µM), 0.194; in experiment [1] (first compound 0.1 µM), 0.201; in experiment [1] (first compound 0.3162 µM), 0.208; in experiment [1] (first compound 1 µM), 0.194; in experiment [2] (first compound 0.2 µM), 0.696. Further, the relative viability in experiment [2] (first compound 0.6325 µM) was determined as 1; in experiment [2] (first compound 2 µM) it was 0.958; in experiment [2] (first compound 6.325 µM) it was 1.07; in experiment [2] (first compound 20 µM), 1.12; in experiment [3] (first compound 0.2 µM) it was 0.805; in experiment [3] (first compound 0.6325 µM), 0.83. Further, the relative viability in experiment [3] (first compound 2 µM) amounted to 0.822; in experiment [3] (first compound 6.325 µM) it was 0.788; in experiment [3] (first compound 20 µM) it was 0.779; in experiment [4] (first compound 0.02 µM) it was 0.666; in experiment [4] (first compound 0.06325 µM), 0.808; in experiment [4] (first compound 0.2 µM), 0.782. The relative viability in experiment [4] (first compound 0.6325 µM) was found to be 0.548; in experiment [4] (first compound 2 µM), 0.69.
